In experiment [1] the test system is hematopoietic stem cells of cord blood / NK precursor cells (pNK). Put plainly: FACS analysis of CD56+ NK cell population during differentiation of cord blood hematopoietic stem cells into mature NK cells via NK precursor cells. The format is cell-based, human. The note with it: for NK cells (FACS analysis): in the presence of IL-15, FIGS. 10 and 11; for CD56+ NK cell population: cultured in the presence of IL-15, vs IL-15 alone. The procedure: Cord blood provided from Department of Obstetric & Gynecology, Konyang University Hospital, Taejon, Korea, for the purpose of study only was diluted in RPMI 1640 (GIBCO-BRL, USA) at the ratio of 2:1. The prepared cord blood was loaded on the upper part of Ficoll-Paque (Sigma, USA), followed by centrifugation ([…], 30 minutes) to separate mononuclear cells (MNC). Erythrocytes were eliminated from the obtained cells and the obtained mononuclear cells were marked with the hematopoietic stem cell marker ‘CD34 microbeads’. Then, CD34+ cells were separated by MS/RS column and MACS (Magnetic Activated Cell Sorter). The purity of the obtained CD34+ hematopoietic stem cells (referred as “HSC cells” hereinafter) was measured by FACS (BD Bioscience, Mountainview, Calif.), which was 92% (FIG. 1).
The HSC cells separated from cord blood in Example 1 were inoculated in a 12-well plate (Falcon, USA) containing the Myelocult complete medium (Stem cell Technology, CA) supplemented with 30 ng/ml of human […] (PeproTech, USA), 50 ng/ml of human Flt3L (FMS-like tyrosine kinase 3 ligand, PeproTech, USA), 5 ng/ml of human IL-7 (PeproTech, USA), and 10^−6 M of […] at the concentration of 1×10^6 cells/well, followed by culture for 14 days in a 37° C., 5% CO2 incubator. Three days later, half of the supernatant was replaced with a fresh medium containing cytokines having the same composition as the above. For the differentiation into mature NK cells (referred as “NK cells” hereinafter), HSC cells were recovered 14 days later and cultured again for 14 days in the presence of human IL-15 (30 ng/ml, PeproTech, USA). Three days later, half of the medium was replaced with a fresh medium containing cytokines having the same composition as the above. (FIG. 2). On the 28th day of culture, the purity of NK cells was measured by using anti-CD56 antibody and the expression of NK cell receptor was measured by flow cytometry (FACS) (FIG. 3).
(§1) To investigate the effect on NK cell differentiation of IL-21 known to promote differentiation and increase activity, IL-21 (20 ng/ml, PeproTech, USA) was treated during the process of differentiation from hematopoietic stem cells of cord blood into mature NK cells (mNK) through NK precursor cells (pNK). The cells were cultured in the presence of IL-15, followed by FACS analysis and ^51Cr release assay.
To investigate the effect on NK cell differentiation of YC-1 [3-(5′-hydroxymethyl-2′-furyl)-1-benzylindazole, formula 1] known as an anticancer agent functioning in suppressing HIF-1α activity to inhibit tumor cell growth, YC-1 (1 uM, Sigma) was treated during the process of differentiation from hematopoietic stem cells of cord blood into mature NK cells (mNK) through NK precursor cells (pNK). […]

In another experiment the test system is NK cells. Put plainly: 51Cr release assay of the killing activity of differentiated mature NK cells. The format is cell-based, human. The following applies: cultured in the presence of IL-15. The procedure:
as §1
To investigate the effect on NK cell differentiation of YC-1 [3-(5′-hydroxymethyl-2′-furyl)-1-benzylindazole, formula 1] known as an anticancer agent functioning in suppressing HIF-1α activity to inhibit tumor cell growth, YC-1 (1 uM, Sigma) was treated during the process of differentiation from hematopoietic stem cells of cord blood into mature NK cells (mNK) through NK precursor cells (pNK). The cells were cultured in the presence of IL-15, followed by FACS analysis and ^51Cr release assay.

In the case of “IL-21: cytokine secreted by activated CD4+ T cells; amino acid sequence represented by SEQ. ID. NO: 1 (PeproTech)”, the “NK cells (FACS analysis)” value in experiment [1] (IL-21 10 ng/ml alone (low concentration)) is “slightly increased”. The “CD56+ NK cell population” value in experiment [1] (IL-21 20 ng/ml treated to pNK, FIGS. 4 and 5) is given as “increased”. In the experiment with NK cells (IL-21 20 ng/ml, E:T 2.5:1, FIG. 6), the “killing activity of NK cells” value was “increased”.
Consider `OCc1ccc(-c2nn(Cc3ccccc3)c3ccccc23)o1` [YC-1, 3-(5′-hydroxymethyl-2′-furyl)-1-benzylindazole], for which the “NK cells (FACS analysis)” value in experiment [1] (YC-1 0.5 uM alone (low concentration)) is “slightly increased”. For the same compound, the “CD56+ NK cell population” value in experiment [1] (YC-1 1 uM treated to pNK, FIGS. 7 and 8) is “increased”. Moreover, the “killing activity of NK cells” value in the experiment on NK cells (YC-1 1 uM, E:T 5:1, FIG. 9) is “increased”.

(Values after patent US8318491B2, “Method of differentiating hematopoietic stem cells into natural killer cells using YC-1 or IL-21” (Korea Research Institute of Bioscience and Biotechnology, priority 2007, dated 2012).)
